According to PubChem BioAssay (NCI):
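Where inhibition never reached the appropriate level, the endpoint shown equals the highest concentration tested. Otherwise, values were interpolated linearly from a five-concentration, 48-hour dose response in 96-well plates. At the TGI there is no net growth.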

Experiments:
Experiment in all cases: DTP human tumour cell line panel, 48 h
T-47D breast = system: T-47D breast
K-562 leukemia = system: K-562 leukemia
UO-31 renal = system: UO-31 renal
HCT-116 colon = system: HCT-116 colon
EKVX NSCLC = system: EKVX NSCLC
UACC-257 melanoma = system: UACC-257 melanoma
ACHN renal = system: ACHN renal
SK-MEL-2 melanoma = system: SK-MEL-2 melanoma
RPMI-8226 leukemia = system: RPMI-8226 leukemia
MDA-MB-231 breast = system: MDA-MB-231 breast
MCF7 breast = system: MCF7 breast
SR leukemia = system: SR leukemia
NCI/ADR-RES ovarian = system: NCI/ADR-RES ovarian
SK-MEL-5 melanoma = system: SK-MEL-5 melanoma
CCRF-CEM leukemia = system: CCRF-CEM leukemia

Structure (SMILES) | TGI (T-47D breast) [µM] | TGI (K-562 leukemia) [µM] | TGI (UO-31 renal) [µM] | TGI (HCT-116 colon) [µM] | TGI (EKVX NSCLC) [µM] | TGI (UACC-257 melanoma) [µM] | TGI (ACHN renal) [µM] | TGI (SK-MEL-2 melanoma) [µM] | TGI (RPMI-8226 leukemia) [µM] | TGI (MDA-MB-231 breast) [µM] | TGI (MCF7 breast) [µM] | TGI (SR leukemia) [µM] | TGI (NCI/ADR-RES ovarian) [µM] | TGI (SK-MEL-5 melanoma) [µM] | TGI (CCRF-CEM leukemia) [µM]
C/C(=N/NC(=S)Nc1cccc(Cl)c1)c1ccccn1 | 1.05 | 2.85 | 5.03 | 12.2 | 3.33 | 2.41 | 8.13 | 8.92 | 17.8 | 10.3 | 5.17 | 1.99 | 4.58 | 4 | > 15.9
CSc1c2c(C)n[nH]c2nn1-c1ccccc1 | > 100 | > 100 | > 100 | > 100 | > 100 | > 100 | – | > 100 | > 100 | > 100 | > 100 | > 100 | > 100 | > 100 | > 100
Oc1cc(Cl)cc2cc(Cl)cnc12 | 9.95 | 10.6 | 20.5 | > 100 | 10.6 | > 100 | 21.3 | – | 12.2 | 77.2 | 54.6 | 13.6 | 6.67 | 53.3 | 6.37
N#C/C(=C/n1c(=S)[nH]c2ccccc21)C(N)=O | > 100 | > 100 | > 100 | > 100 | > 100 | > 100 | > 100 | > 100 | > 100 | > 100 | > 100 | > 100 | > 100 | > 100 | > 100
CC(C)(C)c1cc(C(=O)C2Cc3ccccc3C(=O)O2)cc(C(C)(C)C)c1O (stereo unspecified) | > 100 | > 100 | 23.2 | 21.9 | 25.9 | 23.9 | 40.3 | 23.9 | 42.1 | 31.7 | 38.6 | 51.2 | 50.5 | 25.1 | 34.7
N#C/C=c1/c2ccccc2n2nc3ccccc3c12 | > 100 | > 100 | > 100 | 12.1 | > 100 | > 100 | 27.9 | > 100 | > 100 | 16.6 | > 100 | > 100 | > 100 | > 100 | > 100
O=C1CCCCC/C1=C\c1cccc([N+](=O)[O-])c1 | > 100 | > 100 | 80.1 | 53 | > 100 | 54.8 | > 100 | > 100 | 78.1 | 56.4 | > 100 | 39.9 | 95.5 | 40.4 | 44.2
CCn1c(-c2ccc(OC)cc2)nc2c1C(=O)c1ccccc1C2=O | > 100 | > 100 | – | > 100 | > 100 | > 100 | > 100 | – | > 100 | > 100 | > 100 | > 100 | > 100 | > 100 | > 100
COC1=CC(=O)c2c(cc(COP(N)(=O)N(CCCl)CCCl)n2C)C1=O (stereo unspecified) | 4.29 | 36.9 | 2.65 | 0.707 | 1.62 | 14.2 | 1.18 | 4.12 | 4.73 | 8.42 | 9.55 | 1.31 | 19.8 | 2.82 | 8
Oc1cc(O)c2c(c1)O[C@H](c1cc(O)c(O)c(O)c1)[C@@H](O)C2 | 68.7 | 38.2 | 35.9 | 33.2 | 94.9 | > 100 | 48 | 64.8 | 43.9 | 34 | 35.2 | 39.1 | > 100 | 60.2 | 43.4
C/C(=N/NC(=S)N(C)C)c1ccccc1O | > 85.8 | > 100 | > 100 | 34.8 | > 100 | 63.4 | > 76.5 | > 100 | > 100 | > 100 | > 40.4 | > 39.5 | 13.8 | > 49.8 | 21
CC(=O)NNC(=S)/N=C\c1c(O)c2ccccc2oc1=O | > 100 | > 100 | > 100 | > 100 | – | > 100 | > 100 | > 100 | > 100 | > 100 | > 100 | > 100 | > 100 | > 100 | > 100
C=C1C(=O)[C@]23C[C@H]1C[C@@H](O)[C@H]2[C@]1(COC3=O)[C@@H](OC(C)=O)CC[C@@](C)(COC(C)=O)[C@H]1C=O | 25.4 | 14.1 | > 50 | > 50 | > 50 | > 50 | > 50 | > 50 | – | > 50 | > 50 | > 50 | > 50 | > 50 | 15.1
COc1ccc(OC)c(NC2=NCCO2)c1 | > 100 | > 100 | > 100 | > 100 | > 100 | > 100 | > 100 | > 100 | > 100 | > 100 | > 100 | > 100 | > 100 | > 100 | > 100
O=C(OCC1CCCN2CCCCC12)c1cccnc1 (stereo unspecified) | > 100 | > 100 | > 100 | > 100 | > 100 | > 100 | > 100 | > 100 | > 100 | > 100 | > 100 | – | > 100 | > 100 | > 100
COC(=O)c1ccccc1NC(=S)NN(C)C | > 100 | > 100 | > 100 | > 100 | > 100 | > 100 | > 100 | > 100 | > 100 | > 100 | > 100 | > 100 | > 100 | – | > 100

Structure (SMILES) | TGI (T-47D breast) [µM] | TGI (K-562 leukemia) [µM] | TGI (UO-31 renal) [µM] | TGI (HCT-116 colon) [µM] | TGI (EKVX NSCLC) [µM] | TGI (UACC-257 melanoma) [µM] | TGI (ACHN renal) [µM] | TGI (SK-MEL-2 melanoma) [µM] | TGI (RPMI-8226 leukemia) [µM] | TGI (MDA-MB-231 breast) [µM] | TGI (MCF7 breast) [µM] | TGI (SR leukemia) [µM] | TGI (NCI/ADR-RES ovarian) [µM] | TGI (SK-MEL-5 melanoma) [µM] | TGI (CCRF-CEM leukemia) [µM]
CC(C)(C)c1ccc(O)c(C(c2ccc([N+](=O)[O-])cc2)c2cc(C(C)(C)C)ccc2O)c1 | 8.72 | 7.35 | 3.52 | 5.06 | 3.92 | 3.41 | 3.3 | 3.36 | 4.98 | 3.78 | 3.83 | 5.47 | 7.72 | – | 7.53
Cc1nc2ccccc2c(=O)n1NC(=O)c1ccccc1[N+](=O)[O-] | > 100 | > 100 | > 100 | > 100 | > 100 | > 100 | > 100 | – | > 100 | > 100 | > 100 | > 100 | > 100 | > 100 | > 100
CC(C(=O)NCCNC(=O)CCC(=O)N(C)O)C(=O)NCCNC(=O)CCC(=O)N(C)O | > 100 | > 100 | > 100 | – | > 100 | > 100 | > 100 | > 100 | > 100 | > 100 | > 100 | > 100 | > 100 | > 100 | > 100
O=C1C(C(c2ccc([N+](=O)[O-])cc2)N2CCOCC2)=C(O)C(c2ccccc2)N1c1ccccc1 (stereo unspecified) | > 10 | > 10 | > 10 | > 10 | > 10 | > 10 | > 10 | > 10 | > 10 | > 10 | > 10 | > 10 | > 10 | > 10 | > 10
COC(=O)[C@H]1[C@@H](O)[C@@]2(O)c3c(OC)cc(OC)cc3O[C@@]2(c2ccc3c(c2)OCO3)[C@@H]1c1ccccc1 | > 10.8 | – | 0.0223 | 0.4 | > 33.3 | > 50 | 0.235 | 0.45 | 0.0492 | 0.211 | 0.0618 | – | 0.241 | 0.0688 | > 50
COc1ccc(N2CN(C)CSC2=S)cc1 | > 100 | > 100 | > 100 | > 100 | > 100 | > 100 | > 100 | > 100 | > 100 | > 100 | > 100 | – | > 100 | > 100 | 87.2
CC(C)NCC(O)c1ccc(O)c2ncccc12 (stereo unspecified) | > 100 | > 100 | > 100 | 87.7 | > 100 | > 100 | > 100 | > 100 | > 100 | > 100 | > 100 | 67.6 | 92.5 | > 100 | –
N/C(=N\NC(=O)c1nc2ccccc2s1)c1ccccn1 | > 100 | > 77.8 | 15.8 | 19.6 | > 63.6 | > 79.8 | 16.5 | > 100 | 26.8 | > 100 | > 63.7 | – | 15.5 | 21.3 | > 45.6
CC1(C)Oc2ccc3c(=O)cc(-c4cccs4)oc3c2C1C(=O)O (stereo unspecified) | > 100 | > 100 | – | > 100 | > 100 | > 100 | – | > 100 | – | > 100 | > 100 | > 100 | > 100 | > 100 | > 100
N/C(=N\S(=O)(=O)c1ccc(-c2ccccn2)s1)Nc1ccc(Cl)cc1 | 45.6 | 66.2 | 34.9 | 31 | 26 | 21.1 | 33.6 | 27.4 | 84.5 | 27.9 | 34.4 | 53.1 | 43.5 | 30.6 | –
CC(=O)OC12CC(C(F)(F)F)(C(F)(F)F)OC1(OC(C)=O)CC(C(F)(F)F)(C(F)(F)F)O2 (stereo unspecified) | 8.56 | > 100 | 13.3 | 29.7 | – | > 100 | 2.38 | > 100 | 7.61 | 53.2 | 3.73 | 82.1 | > 100 | 5.81 | > 100
Cc1nc(N)sc1C(=O)Nc1ncn[nH]1 | > 100 | > 100 | > 100 | > 100 | > 100 | > 100 | > 100 | > 100 | > 100 | > 100 | > 100 | 70 | > 100 | > 100 | –
Nc1nc(Nc2ccc(Cl)cc2)sc1C(=O)c1c[nH]c2ccccc12 | 92.3 | > 100 | 34.2 | 23.1 | – | 19.7 | 36.2 | 28.4 | > 100 | 35 | 31 | > 100 | 33.1 | 24.3 | > 100
O=S(c1ccccc1)C1CC2CC3(CCC21O)OCCO3 (stereo unspecified) | > 100 | > 100 | > 100 | – | > 100 | > 100 | > 100 | > 100 | > 100 | > 100 | > 100 | > 100 | > 100 | > 100 | > 100
Cc1ccc2n(c1)cc(-c1ccc(/C=N/NC(=N)N/N=C/c3ccc(-c4cn5cc(C)ccc5[n+]4C)cc3)cc1)[n+]2C | > 100 | – | 44.1 | > 100 | > 100 | > 100 | > 100 | – | > 100 | > 100 | > 100 | > 100 | > 100 | > 100 | > 100
c1ccc2[nH]c3c(N=NC4=NCCN4)c4ccccc4c-3nc2c1 | > 100 | > 100 | – | 13.4 | 33.3 | 36.5 | > 100 | – | – | 32.4 | 11.4 | > 100 | 20.1 | 15.9 | > 100
